Reference: paper PMC7168327, “Designed Antimicrobial Peptides for Topical Treatment of Antibiotic Resistant Acne Vulgaris” (Antibiotics, 2020)
Converted amounts (≈) assume the structure as drawn. “And” between values parts separate entries of the source, which are not always exact repeats. Identical values can stand only once. Like-named read-outs stand apart in the source and are kept apart here. Bridge positions count the residues as written; N and C are the ends. Square brackets hold non-standard residues; d marks the D form. Peptide text beside a SMILES is read from it. Orn = NCCC[C@H](N)C(=O)O

Experiments:
[1] = system: C. acnes HL013PA1; details: cited from earlier work
Text: (§1) Table 1 Growth Inhibition of dAMPs (MICs, µg/mL) against C. acnes Isolates. | column: Antibiotic Sensitivity / Tetra ^#; Antibiotic Sensitivity / Ery ^#; Antibiotic Sensitivity / Clind ^#

[2] = system: C. acnes HL056PA1; details: cited from earlier work
Text: as §1

[3] = system: C. acnes HL082PA2; details: cited from earlier work
Text: as §1

[4] = system: C. acnes HL053PA1; details: cited from earlier work
Text: as §1

[5] = system: C. acnes ATCC11827; details: cited from earlier work
Text: as §1

[6] = system: C. acnes HL045PA1; details: cited from earlier work
Text: as §1

[7] = system: C. acnes HL043PA1; details: cited from earlier work
Text: as §1

[8] = system: C. acnes HL072PA1; details: cited from earlier work
Text: as §1

[9] = system: C. acnes HL043PA2; details: cited from earlier work
Text: as §1

[10] = system: C. acnes HL007PA1; details: cited from earlier work
Text: as §1

[11] = system: C. acnes ATCC6919; details: cited from earlier work
Text: as §1

[12] = system: C. acnes HL038PA1; details: cited from earlier work
Text: as §1

[13] = system: C. acnes HL013PA1; assay type: cell-based, Cutibacterium acnes
Experimental: (§2) The ten antibiotic resistant C. acnes clinical isolates were acquired from BEI resources with the two reference strains obtained from American Type Culture Collection (ATCC, Manassas, VA, USA). C. acnes is a relatively slow-growing, typically aerotolerant anaerobic so all in vitro C. acnes experiments were performed under anaerobic conditions.
(§3) Single colonies were inoculated in Reinforced Clostridium Medium (RCM) broth supplemented with sodium thioglycolate and incubated at 37 °C, with shaking at 200 rpm, for 2 or 3 days to reach logarithmic growth (OD600nm = 1.0). Each C. acnes (1 × 10^6 CFU per mL) was incubated with dAMP or clindamycin at two-fold serial dilutions (0.5–32 μg per mL) in RCM on a 96-well microplate for 48 h. Three replicas were included for each test article concentration. Bacterial growth was measured by optical density at 600 nm to determine the MIC for each dAMP applied.

[14] = system: C. acnes HL056PA1; assay type: cell-based, Cutibacterium acnes
Experimental: as §2, §3

[15] = system: C. acnes HL082PA2; assay type: cell-based, Cutibacterium acnes
Experimental: as §2, §3

[16] = system: C. acnes HL053PA1; assay type: cell-based, Cutibacterium acnes
Experimental: as §2, §3

[17] = system: C. acnes ATCC11827; assay type: cell-based, Cutibacterium acnes
Experimental: as §2, §3

[18] = system: C. acnes HL045PA1; assay type: cell-based, Cutibacterium acnes
Experimental: as §2, §3

[19] = system: C. acnes HL043PA1; assay type: cell-based, Cutibacterium acnes
Experimental: as §2, §3

[20] = system: C. acnes HL072PA1; assay type: cell-based, Cutibacterium acnes
Experimental: as §2, §3

[21] = system: C. acnes HL043PA2; assay type: cell-based, Cutibacterium acnes
Experimental: as §2, §3

[22] = system: C. acnes HL007PA1; assay type: cell-based, Cutibacterium acnes
Experimental: as §2, §3

[23] = system: C. acnes ATCC6919; assay type: cell-based, Cutibacterium acnes
Experimental: as §2, §3

[24] = system: C. acnes HL038PA1; assay type: cell-based, Cutibacterium acnes
Experimental: as §2, §3

[25] = system: ten C. acnes clinical isolates and two C. acnes ATCC reference strains; assay type: cell-based, Cutibacterium acnes; details: for in vitro anti-bacterial activity against the C. acnes bacterial strains (in words): 0.5–32 μg/mL concentration range evaluated
Experimental: as §2, §3

[26] = system: C. acnes HL043PA2 compared to human keratinocytes; assay type: cell-based
Experimental: In evaluating the clinical utility of each of the candidate dAMPs for C. acnes treatment, the Therapeutic Index was determined. The Therapeutic Index is defined as the ratio of concentration at which the dAMP is active against the prokaryotic C. acnes pathogen without inducing cytotoxic damage to the surrounding mammalian cells. The EC10 and EC50 doses, defined as the concentrations required to kill 10% and 50% respectively of human keratinocytes following 8 h incubation with each of the Riptide dAMPs, are tabulated and graphed in Table 2 and Figure 3, respectively. The larger the Therapeutic Index, the greater the specificity of the dAMP for destroying C. acnes cells.
as §3
(§4) Noninvasive and real-time monitoring of mammalian cytotoxicity to assess the potential skin toxicity of the dAMPs was evaluated using bioluminescent human immortalized keratinocytes (HaCaT, AddexBio, San Diego, CA, USA). The bioluminescent variant of HaCaT was constructed by transfection with a luciferase gene (RediFect Red-Fluc-Puromycin, Cat# CL596002). Keratinocytes (1 × 10^4 cells, 100 μL) were plated in 96-well black-walled plates. The candidate dAMPs were 2-fold serially diluted from 1024 µg/mL in growth medium supplemented with 150 µg/mL D-luciferin. Each concentration was performed in triplicate, with the final volume being 200 μL. Imaging was performed at select times (0, 15, and 30 min and 1, 3, 5, and 8 h) after the addition of the dAMP, and compared to concurrently run vehicle-control, using an IVIS Lumina imaging system (Caliper Life Sciences, Inc., Hopkinton, MA, USA). For imaging, the 96-well plate was positioned on the stage (12.5-cm field of view), with an open emission filter, binning of 4, and f-stop 1 and a 1-min exposure time. Data analysis was performed using the Living Image software program (version 4.3, Caliper Life Sciences, Inc.). The dAMP concentrations required to kill 10% and 50% of keratinocytes were determined using GraphPad Prism 7 (GraphPad Software, San Diego, CA, USA).

[27] = system: bioluminescent human immortalized keratinocytes (HaCaT); assay: Mammalian cytotoxicity, bioluminescent human keratinocytes; assay type: cell-based
Experimental: as §4

Compound: CCC[C@@H]1C[C@@H](C(=O)N[C@@H]([C@H]2O[C@H](SC)[C@H](O)[C@@H](O)[C@H]2O)[C@H](C)Cl)N(C)C1 [Clind, clindamycin]
- Antibiotic Sensitivity, Clind [1]: R (Antibiotic resistance to clindamycin defined by MIC ≥ 32 μg/mL)
- Antibiotic Sensitivity, Clind [2]: R (Antibiotic resistance to clindamycin defined by MIC ≥ 32 μg/mL)
- Antibiotic Sensitivity, Clind [3]: S (S, sensitive)
- Antibiotic Sensitivity, Clind [4]: R (Antibiotic resistance to clindamycin defined by MIC ≥ 32 μg/mL)
- Antibiotic Sensitivity, Clind [5]: S (S, sensitive)
- Antibiotic Sensitivity, Clind [6]: R (Antibiotic resistance to clindamycin defined by MIC ≥ 32 μg/mL)
- Antibiotic Sensitivity, Clind [7]: R (Antibiotic resistance to clindamycin defined by MIC ≥ 32 μg/mL)
- Antibiotic Sensitivity, Clind [8]: R (Antibiotic resistance to clindamycin defined by MIC ≥ 32 μg/mL)
- Antibiotic Sensitivity, Clind [9]: R (Antibiotic resistance to clindamycin defined by MIC ≥ 32 μg/mL)
- Antibiotic Sensitivity, Clind [10]: R (Antibiotic resistance to clindamycin defined by MIC ≥ 32 μg/mL)
- Antibiotic Sensitivity, Clind [11]: S (S, sensitive)
- Antibiotic Sensitivity, Clind [12]: R (Antibiotic resistance to clindamycin defined by MIC ≥ 32 μg/mL)

Compound: CC[C@H](C)[C@@H]1NC(=O)CNC(=O)[C@H](CCCCN)NC(=O)[C@H](Cc2ccc(O)cc2)NC(=O)[C@@H]2CSSC[C@H](NC1=O)C(=O)N[C@@H](Cc1ccccc1)C(=O)N[C@@H](CCCCN)C(=O)N[C@@H](CCCCN)C(=O)N[C@H](C(=O)N[C@@H](CCCCN)C(N)=O)CSSC[C@H](NC(=O)[C@H](Cc1ccccc1)NC(=O)[C@@H](N)CCCNC(=N)N)C(=O)N[C@@H](Cc1c[nH]c3ccccc13)C(=O)N[C@@H](CCCCN)C(=O)N[C@@H](C(C)C)C(=O)N2 [RP557] (H-RFCWKVCYKGICFKKCK-NH2; disulfide 3-16, 7-12)
- MIC ([13]; C. acnes HL013PA1, RCM broth, anaerobic, 1 × 10^6 CFU per mL, two-fold dilutions 0.5–32 μg/mL, 48 h, OD 600 nm, mean of three replicates): 2 µg/mL (≈ 0.936 µM)
- MIC ([14]; C. acnes HL056PA1, RCM broth, anaerobic, 1 × 10^6 CFU per mL, two-fold dilutions 0.5–32 μg/mL, 48 h, OD 600 nm, mean of three replicates): 4 µg/mL (≈ 1.87 µM)
- MIC ([15]; C. acnes HL082PA2, RCM broth, anaerobic, 1 × 10^6 CFU per mL, two-fold dilutions 0.5–32 μg/mL, 48 h, OD 600 nm, mean of three replicates): 2 µg/mL (≈ 0.936 µM)
- MIC ([16]; C. acnes HL053PA1, RCM broth, anaerobic, 1 × 10^6 CFU per mL, two-fold dilutions 0.5–32 μg/mL, 48 h, OD 600 nm, mean of three replicates): 4 µg/mL (≈ 1.87 µM)
- MIC ([17]; C. acnes ATCC11827, RCM broth, anaerobic, 1 × 10^6 CFU per mL, two-fold dilutions 0.5–32 μg/mL, 48 h, OD 600 nm, mean of three replicates): 8 µg/mL (≈ 3.75 µM)
- MIC ([18]; C. acnes HL045PA1, RCM broth, anaerobic, 1 × 10^6 CFU per mL, two-fold dilutions 0.5–32 μg/mL, 48 h, OD 600 nm, mean of three replicates): 4 µg/mL (≈ 1.87 µM)
- MIC ([19]; C. acnes HL043PA1, RCM broth, anaerobic, 1 × 10^6 CFU per mL, two-fold dilutions 0.5–32 μg/mL, 48 h, OD 600 nm, mean of three replicates): 8 µg/mL (≈ 3.75 µM)
- MIC ([20]; C. acnes HL072PA1, RCM broth, anaerobic, 1 × 10^6 CFU per mL, two-fold dilutions 0.5–32 μg/mL, 48 h, OD 600 nm, mean of three replicates): 8 µg/mL (≈ 3.75 µM)
- MIC ([21]; C. acnes HL043PA2 (multi-drug resistant), RCM broth, anaerobic, 1 × 10^6 CFU per mL, two-fold dilutions 0.5–32 μg/mL, 48 h, OD 600 nm, mean of three replicates): 8 µg/mL (≈ 3.75 µM)
- MIC ([22]; C. acnes HL007PA1, RCM broth, anaerobic, 1 × 10^6 CFU per mL, two-fold dilutions 0.5–32 μg/mL, 48 h, OD 600 nm, mean of three replicates): 8 µg/mL (≈ 3.75 µM)
- MIC ([23]; C. acnes ATCC6919, RCM broth, anaerobic, 1 × 10^6 CFU per mL, two-fold dilutions 0.5–32 μg/mL, 48 h, OD 600 nm, mean of three replicates): 8 µg/mL (≈ 3.75 µM)
- MIC ([24]; C. acnes HL038PA1, RCM broth, anaerobic, 1 × 10^6 CFU per mL, two-fold dilutions 0.5–32 μg/mL, 48 h, OD 600 nm, mean of three replicates): 8 µg/mL (≈ 3.75 µM)
- in vitro anti-bacterial activity against the C. acnes bacterial strains (in words) [25]: most active
- MIC values against all C. acnes isolates ([25]; span over ten antibiotic resistant isolates and two ATCC reference strains): 2 to 8 µg/mL
- Therapeutic Index (EC10 / MIC) ([26]; keratinocyte EC10 (8 h) versus MIC against HL043PA2 C. acnes): 30.8
- Therapeutic Index (EC50 / MIC) ([26]; keratinocyte EC50 (8 h) versus MIC against HL043PA2 C. acnes): 35 and 35.1
- viability of human keratinocytes ([27]; 8 h incubation at 256 μg/mL, bioluminescent HaCaT): greater than 80%
- EC10, concentration required to kill 10% of human keratinocytes ([27]; bioluminescent HaCaT, 1 × 10^4 cells/well, 8 h incubation, 2-fold dilutions from 1024 µg/mL, triplicate, IVIS imaging, GraphPad Prism 7): 246 µg/mL

Compound: CC[C@H](C)[C@H](NC(=O)[C@H](CCCN)NC(=O)[C@H](CC(C)C)NC(=O)[C@H](CCCNC(=N)N)NC(=O)[C@@H](N)Cc1ccccc1)C(=O)N[C@@H](CCCCN)C(=O)N[C@@H](C)C(=O)N[C@@H](CCCN)C(=O)N[C@@H](CC(C)C)C(=O)N[C@@H](CCCCN)C(=O)N[C@H](C(=O)N[C@@H](CCCN)C(=O)N[C@H](C(=O)N[C@@H](CCCNC(=N)N)C(=O)N[C@@H](Cc1ccccc1)C(=O)N[C@@H](CCCCN)C(=O)N[C@@H](CC(C)C)C(N)=O)[C@@H](C)CC)C(C)C [RP568] (H-FRL[Orn]IKA[Orn]LKV[Orn]IRFKL-NH2)
- MIC ([13]; HL013PA1, 48 h): >32 µg/mL
- MIC ([14]; HL056PA1, 48 h): >32 µg/mL
- MIC ([15]; HL082PA2, 48 h): >32 µg/mL
- MIC ([16]; HL053PA1, 48 h): >32 µg/mL
- MIC ([17]; ATCC11827, 48 h): >32 µg/mL
- MIC ([18]; HL045PA1, 48 h): >32 µg/mL
- MIC ([19]; HL043PA1, 48 h): >32 µg/mL
- MIC ([20]; HL072PA1, 48 h): >32 µg/mL
- MIC ([21]; HL043PA2, 48 h): >32 µg/mL
- MIC ([22]; HL007PA1, 48 h): >32 µg/mL
- MIC ([23]; ATCC6919, 48 h): >32 µg/mL
- MIC ([24]; HL038PA1, 48 h): >32 µg/mL
- in vitro anti-bacterial activity against the C. acnes bacterial strains (in words) [25]: negligible activity
- Therapeutic Index (EC50 / MIC) ([26]; 8 h): 7.16
- EC50, concentration required to kill 50% of human keratinocytes ([27]; 8 h): 229 µg/mL
